Measured values from patent publication US5985897A, “Benzothiphene compounds, intermediates, compositions, and methods” (priority 1997, dated 1999).
Values belong to the compound of their own block, whether it stands above or below them.

What was measured:
uterus = system: uterus; design: species or system rat (female Sprague Dawley, ovariectomized); conditions: rat, in vivo, po, 0.1 mg/kg/day
Experimental: (§1) In the examples illustrating the methods, a postmenopausal model was used in which effects of different treatments upon circulating lipids were determined.
(§2) Seventy-five day old female Sprague Dawley rats (weight range of 200 to 225 g) were obtained from Charles River Laboratories (Portage, Mich.). The animals were either bilaterally ovariectomized (OVX) or exposed to a sham surgical procedure at Charles River Laboratories, and then shipped after one week. Upon arrival, they were housed in metal hanging cages in groups of 3 or 4 per cage and had ad libitum access to food (calcium content approximately 0.5%) and water for one week. Room temperature was maintained at 22.2°±1.70° C. with a minimum relative humidity of 40%. The photoperiod in the room was 12 hours light and 12 hours dark.
Dosing Regimen Tissue Collection. After a one week acclimation period (therefore, two weeks post-OVX) daily dosing with test compound was initiated. 17α-ethynyl estradiol or the test compound were given orally, unless otherwise stated, as a suspension in 1% carboxymethylcellulose or dissolved in 20% cyclodextrin. Animals were dosed daily for 4 days. […] The animals were then sacrificed by asphyxiation with CO2, the uterus was removed through a midline incision, and a wet uterine weight was determined. […]

Eosinophil peroxidase = system: Eosinophil peroxidase; design: species or system rat (female Sprague Dawley, ovariectomized); conditions: rat, in vivo
Description: as §2
Dosing Regimen Tissue Collection. […] The animals were then sacrificed by asphyxiation with CO2, the uterus was removed through a midline incision, and a wet uterine weight was determined.
Uterine Eosinophil Peroxidase (EPO) Assay. […] Upon addition of 0.01% hydrogen peroxide and 10 mM O-phenylenediamine (final concentrations) in Tris buffer, increase in absorbance was monitored for one minute at 450 nm. […] The maximal velocity of a 15 second interval was determined over the initial, linear portion of the reaction curve.
As is expressed in the data below, estrogenicity also was assessed by evaluating the adverse response of eosinophil infiltration into the uterus. […]

Serum cholesterol = Serum cholesterol analysis in ovariectomized rats (4-day oral dosing); type: in vivo, rat (female Sprague Dawley; conditions: for Serum Cholest. % Dec. (decrease versus ovariectomized controls): daily for 4 days, * p < .05
Experimental: as §1, §2
Dosing Regimen Tissue Collection. After a one week acclimation period (therefore, two weeks post-OVX) daily dosing with test compound was initiated. 17α-ethynyl estradiol or the test compound were given orally, unless otherwise stated, as a suspension in 1% carboxymethylcellulose or dissolved in 20% cyclodextrin. Animals were dosed daily for 4 days. Following the dosing regimen, animals were weighed and anesthetized with a ketamine:xylazine (2:1, V:V) mixture and a blood sample was collected by cardiac puncture. The animals were then sacrificed by asphyxiation with CO2, the uterus was removed through a midline incision, and a wet uterine weight was determined.
Cholesterol Analysis. Blood samples were allowed to clot at room temperature for 2 hours, and serum was obtained following centrifugation for 10 minutes at 3000 rpm. Serum cholesterol was determined using a Boehringer Mannheim Diagnostics high performance cholesterol assay. Briefly the cholesterol was oxidized to cholest-4-en-3-one and hydrogen peroxide. The hydrogen peroxide was then reacted with phenol and 4-aminophenazone in the presence of peroxidase to produce a p-quinone imine dye, which was read spectrophotemetrically at 500 nm. Cholesterol concentration was then calculated against a standard curve.
Data presented in Table 1 below show comparative results among ovariectomized rats, rats treated with 17α-ethynyl estradiol (EE2; an orally available form of estrogen), and rats treated with certain compounds of the instant invention. […] This uterine response to estrogen is well recognized in the art.
The data presented in Table 1 below reflects the response of 5 to 6 rats per treatment.

femur density = assay: Osteoporosis Test Procedure (femur density, ovariectomized rats); type: in vivo, rat; conditions: orally administered
Experimental: Following the General Preparation Procedure, infra, the rats are treated daily for 35 days (6 rats per treatment group) and sacrificed by carbon dioxide asphyxiation on the 36th day. The 35 day time period is sufficient to allow maximal reduction in bone density, measured as described herein. At the time of sacrifice, the uteri are removed, dissected free of extraneous tissue, and the fluid contents are expelled before determination of wet weight in order to confirm estrogen deficiency associated with complete ovariectomy. […] The uteri are then placed in 10% neutral buffered formalin to allow for subsequent histological analysis. The right femurs are excised and digitilized x-rays generated and analyzed by an image analysis program (NIH image) at the distal metaphysis. The proximal aspect of the tibiae from these animals are also scanned by quantitative computed tomography. In accordance with the above procedures, compounds of the instant invention and ethynyl estradiol (EE2) in 20% hydroxypropyl β-cyclodextrin are orally administered to test animals. Distal femur metaphysis and proximal tibiae data are compared to intact and ovariectomized test animals. Results are reported as percent protection relative to ovariectomy. Ovariectomy of the test animals causes a significant reduction in femur density compared to intact, vehicle treated controls. […]

[1] = 0.1 mg/kg PO, negative = increase

- Uterine Eosinophil (Vmax), eosinophil peroxidase (Eosinophil peroxidase): 212.4
Compound: C#C[C@]1(O)CC[C@H]2[C@@H]3CCc4cc(O)ccc4[C@H]3CC[C@@]21C [EE2, 17α-ethynyl estradiol, reference compound]
- uterine weight (in words) (uterus): substantially greater than the uterine weight of ovariectomized test animals
- eosinophil infiltration into the uterus (in words) (Eosinophil peroxidase): substantial, expected increase in eosinophil infiltration
- Serum Cholest. % Dec. (decrease versus ovariectomized controls) (Serum cholesterol; [1]): 76.6%
- serum cholesterol (in words) (Serum cholesterol; oral, versus ovariectomized control animals, EE2 at 0.1 mg/kg/day): caused a decrease in serum cholesterol
- loss of femur density after ovariectomy (in words) (femur density): prevents this loss

Compound: CC(C)c1sc2ccccc2c1Oc1ccc(OCCN2CCCCC2)cc1.Cl [Example 4, 3-[4-[2-(1-Piperidinyl)ethoxy]phenoxy]-2-(2-propyl]benzo[b]thiophene Hydrochloride]
- Serum Cholest. % Dec. (decrease versus ovariectomized controls) (Serum cholesterol; [1]): -27.6%
- Serum Cholest. % Dec. (decrease versus ovariectomized controls) (Serum cholesterol; 1.0 mg/kg PO): 19.2%
- Serum Cholest. % Dec. (decrease versus ovariectomized controls) (Serum cholesterol; 10.0 mg/kg PO): 61.6%

Compound: CCCc1sc2ccccc2c1Oc1ccc(OCCN2CCCCC2)cc1.Cl [Example 7, 3-[4-[2-(1-Piperidinyl)ethoxy]phenoxy]-2-propylbenzo[b]thiophene Hydrochloride]
- Serum Cholest. % Dec. (decrease versus ovariectomized controls) (Serum cholesterol; [1]): -11.1%
- Serum Cholest. % Dec. (decrease versus ovariectomized controls) (Serum cholesterol; 1.0 mg/kg PO): 41.2%
- Serum Cholest. % Dec. (decrease versus ovariectomized controls) (Serum cholesterol; 10.0 mg/kg PO): 46.6%

Compound: Cl.c1ccc2c(Oc3ccc(OCCN4CCCCC4)cc3)c(C3CCCCC3)sc2c1 [Example 11, 3-[4-[2-(1-Piperidinyl)ethoxy]phenoxy]-2-cyclohexylbenzo[b]thiophene Hydrochloride]
- Serum Cholest. % Dec. (decrease versus ovariectomized controls) (Serum cholesterol; [1]): 55.8%
- Serum Cholest. % Dec. (decrease versus ovariectomized controls) (Serum cholesterol; 1.0 mg/kg PO): 58.9%
- Serum Cholest. % Dec. (decrease versus ovariectomized controls) (Serum cholesterol; 10.0 mg/kg PO): 50.2%
